Each block holds one molecule with its values, some of them ahead of it.
Assays:
[1] = test system: BT474; experiment: Breast cancer cell line viability, PHI-101 alone (Example 1); type: cell-based; settings: Homo sapiens, BT-474; BT474, non-triple-negative breast cancer; 72 hours; Celltiter-Glo
Protocol: (§1) Each of the breast cancer cell lines shown in Table 1 below was cultured with DMEM (Dulbecco's Modified Eagle Medium) or RPMI1640 in a 100-mm culture dish (SPL) under 5% CO2 at 37° C., and then diluted to a density of 3,000 cells/90 μl using PBS (phosphate-buffered saline) (Biosesang).
(§2) Next, 90 μl of each of the diluted breast cancer cell lines was treated with 10 μl of a 1:2 serial dilution of a hydrochloride salt of the compound represented by Formula 1 (hereinafter referred to as “PHI-101”) to a final concentration of up to 100 μM, and then cultured under 5% CO2 at 37° C. for 72 hours. After culture, the cells were counted using a Celltiter-Glo assay kit (Promega), and cell viability was measured by expressing the cell count as a percentage relative to that of a control group not treated with PHI-101.
(§3) The IC50 of PHI-101 for each breast cancer cell line was calculated by sigmoidal curve fitting using the PRIZM software, and the results of the calculation are shown in Table 2 below. It was confirmed that PHI-101 had excellent ability to inhibit the breast cancer cell lines, and that PHI-101 also had excellent ability to inhibit the triple-negative breast cancer cell lines (FIGS. 1 to 3).

[2] = test system: BT549; experiment: as above; type: cell-based; settings: Homo sapiens, BT-549; BT549, triple-negative breast cancer; 72 hours; Celltiter-Glo
Protocol: as §1, §2, §3

[3] = test system: HCC1937; experiment: as above; type: cell-based; settings: Homo sapiens; HCC1937, triple-negative breast cancer; 72 hours; Celltiter-Glo
Protocol: as §1, §2, §3

[4] = test system: HS578T; experiment: as above; type: cell-based; settings: Homo sapiens, Hs-578T, triple-negative breast cancer, 72 hours, Celltiter-Glo
Protocol: as §1, §2, §3

[5] = test system: JIMT1; experiment: as above; type: cell-based; settings: Homo sapiens, JIMT-1; JIMT1, non-triple-negative breast cancer; 72 hours; Celltiter-Glo
Protocol: as §1, §2, §3

[6] = test system: MCF7; experiment: as above; type: cell-based; settings: Homo sapiens; MCF7, non-triple-negative breast cancer; 72 hours; Celltiter-Glo
Protocol: as §1, §2, §3

[7] = test system: MDA-MB-231; experiment: as above; type: cell-based; settings: Homo sapiens; MDA-MB-231, triple-negative breast cancer; 72 hours; Celltiter-Glo
Protocol: as §1, §2, §3

[8] = test system: MDA-MB-435; experiment: as above; type: cell-based; settings: Homo sapiens; MDA-MB-435, triple-negative breast cancer; 72 hours; Celltiter-Glo
Protocol: as §1, §2, §3

[9] = test system: MDA-MB-468; experiment: as above; type: cell-based; settings: Homo sapiens; MDA-MB-468, triple-negative breast cancer; 72 hours; Celltiter-Glo
Protocol: as §1, §2, §3

[10] = test system: SK-BR-3; experiment: as above; type: cell-based; settings: Homo sapiens; SK-BR-3, non-triple-negative breast cancer; 72 hours; Celltiter-Glo
Protocol: as §1, §2, §3

[11] = test system: T47D; experiment: as above; type: cell-based; settings: Homo sapiens, non-triple-negative breast cancer, 72 hours, Celltiter-Glo
Protocol: as §1, §2, §3

[12] = test system: ZR-75-1; experiment: as above; type: cell-based; settings: Homo sapiens; ZR-75-1, non-triple-negative breast cancer; 72 hours; Celltiter-Glo
Protocol: as §1, §2, §3

[13] = test system: BT474; experiment: Cell viability, PHI-101 alone or with cisplatin (Example 2); type: cell-based; settings: Homo sapiens, BT-474, medium instead of cisplatin, 72 hours
Protocol: (§4) Each of the breast cancer cell lines shown in Table 3 below was cultured using RPMI-1640 in a 100-mm culture dish, and then diluted to a density of 3,000 cells/90 μl using PBS.
(§5) Thereafter, 90 μl of each of the diluted breast cancer cell lines was treated with 10 μl of a 1:2 serial dilution of a hydrochloride salt of PHI-101 to a final concentration of up to 100 μM and cultured under 5% CO2 at 37° C. for 1 hour, and then treated with cisplatin at an IC50 concentration for each cell line. Groups treated with PHI-101 alone were additionally treated with 10 μl of medium instead of cisplatin. Next, each of the cell lines was cultured under 5% CO2 at 37° C. for 72 hours. Next, the cells were counted using a Celltiter-Glo assay kit (Promega), and cell viability was measured by expressing the cell count as a percentage relative to that of a control group not treated with PHI-101 and cisplatin.
(§6) IC50 for each breast cancer cell line was calculated by sigmoidal curve fitting using the PRIZM software, and the results of the calculation are shown in Table 4 below.

[14] = test system: BT549; experiment: as above; type: cell-based; settings: Homo sapiens, BT-549; BT549 (triple-negative); medium instead of cisplatin; 72 hours
Protocol: as §4, §5, §6

[15] = test system: MCF7; experiment: as above; type: cell-based; settings: Homo sapiens, medium instead of cisplatin, 72 hours
Protocol: as §4, §5, §6

[16] = test system: T47D; experiment: as above; type: cell-based; settings: Homo sapiens, medium instead of cisplatin, 72 hours
Protocol: as §4, §5, §6

[17] = test system: ZR-75-1; experiment: as above; type: cell-based; settings: Homo sapiens, medium instead of cisplatin, 72 hours
Protocol: as §4, §5, §6

[18] = test system: MDA-MB-468; experiment: Tumor inhibitory activity in mice with MDA-MB-468 tumors (Example 5); type: in vivo, NOD SCID female mice; settings: MDA-MB-468 tumors in mice; olaparib 50 mg/kg/day, PHI-101 60 mg/kg/day; treated 28 days
Protocol: (§7) The breast cancer cell line MDA-MB-468 was monolayer-cultured in an L-15 medium supplemented with 10% heat-inactivated fetal bovine serum under 5% CO2 at 37° C. The tumor cells were subcultured so as not to exceed passages 4 to 5 before confluence by trypsin-EDTA treatment. The tumor cells growing in an exponential growth phase were harvested and counted for tumor inoculation.
(§8) As mice, 6-8-week-old NOD SCID female mice (18 to 22 g) (GemPharmatech Co., Ltd) were prepared. The mice were quarantined for 7 days before use in the experiment, and mice with abnormal health were excluded from the experiment. The mice were housed in cages (300×180×150 mm) at 22±3° C. and a relative humidity of 40% to 70% under a 12-hour light/12-hour dark cycle. During the entire experimental period except for the period specified by the protocol, the mice were allowed to freely access sterilized dry granular food (Beijing Keaoxieli Feed Co., Ltd., Beijing, China) and water.
(§9) For tumor induction, MDA-MB-468 breast cancer cells (1×10^7) in 0.1 ml of a mixture (1:1) of L-15 and Matrigel (BD, cat. No. 356234) were injected subcutaneously into the right flank of each mouse. […] Then, five mice were allocated for each group so that the average tumor volume was the same between the groups at the time point of treatment.
Measurement of the tumor volume was performed with calipers twice a week. The tumor volume (TV) (mm^3) was calculated using the following equation. TV=a×b^2/2
The tumor growth inhibition (TGI) rate was calculated according to the following equation using the tumor volume. TGI (%)=(1−T/C)×100
T=final tumor volume of experimental group/initial tumor volume of experimental group
C=final tumor volume of control group/initial tumor volume of control group
In order to evaluate whether PHI-101 and/or olaparib affects tumor inhibition in the mice, the volume and growth inhibition rate of the tumor generated by the breast cancer cell line MDA-MB-468 transplanted into the mice were analyzed according to Example 5-1-6.

[19] = Mouse body weight change in MDA-MB-468 tumor model (Example 5); type: in vivo, NOD SCID female mice; settings: MDA-MB-468 tumor mice; olaparib 50 mg/kg/day, PHI-101 60 mg/kg/day; 28 days; FIG. 14
Protocol: as §8, §9
The body weight of each mouse was measured twice a week, and the change (%) in body weight (BW) was calculated using the following equation. BW change (%)=(BWPG-Dx/BWPG-D1)×100
In order to evaluate whether PHI-101 and/or olaparib affected the body weight of each mouse, the change in the body weight of each mouse was analyzed according to Example 5-1-5.

[20] = test system: JIMT-1; experiment: Tumor inhibitory activity in mice with Herceptin-resistant JIMT-1 tumors (Example 6); type: in vivo, NOD SCID female mice; settings: JIMT-1 tumors in mice; PHI-101 60 mg/kg/day vs Herceptin 5 mg/kg/day; 3 weeks; FIG. 16
Protocol: as §7, with “The Herceptin-resistant breast cancer” for “The breast cancer”, “cell line JIMT-1 was monolayer-cultured” for “cell line MDA-MB-468 was monolayer-cultured”
As mice, 7-8-week-old NOD SCID female mice (20 to 22 g) (GemPharmatech Co., Ltd.) were prepared. The mice were quarantined for 7 days before use in the experiment, and mice with abnormal health were excluded from the experiment. The mice were housed in cages (300×180×150 mm) at 22±3° C. and a relative humidity of 40% to 70% under a 12-hour light/12-hour dark cycle. […]
Measurement of the tumor volume was performed with calipers twice a week. The tumor volume (TV) (mm^3) was calculated using the following equation. […]
The tumor growth inhibition (TGI) rate was calculated according to the following equation using the tumor volume. […]
In order to evaluate whether PHI-101 has an effect on tumor inhibition in the mice, the volume and growth inhibition rate of the tumor generated by the breast cancer cell line JIMT-1 transplanted into the mice were analyzed by performing Example 6-1-5.

[21] = test system: BT474; experiment: Cell viability, olaparib alone or with PHI-101 (Example 3); type: cell-based; settings: Homo sapiens, BT-474, medium instead of PHI-101, 72 hours
Protocol: (§10) Each of the breast cancer cell lines shown in Table 5 below was cultured with DMEM (Dulbecco's Modified Eagle Medium) or RPMI1640 in a 100-mm culture dish (SPL), and then diluted to a density of 3,000 cells/90 μl using PBS (phosphate-buffered saline) (Biosesang).
(§11) Thereafter, 90 μl of each of the diluted breast cancer cell lines was treated with 10 μl of a 1:2 serial dilution of olaparib to a final concentration of up to 100 μM, and cultured under 5% CO2 at 37° C. for 1 hour. Then, each breast cancer cell line was treated with a hydrochloride salt of PHI-101 to a final concentration of 1 μM. Groups treated with olaparib alone were additionally treated with 10μ of medium instead of PHI-101. Thereafter, each cell line was cultured under 5% CO2 at 37° C. for 72 hours. Then, the cells were counted using a Celltiter-Glo assay kit (Promega), and cell viability was measured by expressing the cell count as a percentage relative to that of a control group not treated with PHI-101 and olaparib.
(§12) IC50 for each breast cancer cell line was calculated by sigmoidal curve fitting using the PRIZM software, and the results of the calculation are shown in Table 6 below.

[22] = test system: HS578T; experiment: as above; type: cell-based; settings: Homo sapiens, Hs-578T; HS578T (triple-negative); medium instead of PHI-101; 72 hours
Protocol: as §10, §11, §12

[23] = test system: JIMT1; experiment: as above; type: cell-based; settings: Homo sapiens, JIMT-1, medium instead of PHI-101, 72 hours
Protocol: as §10, §11, §12

[24] = test system: MCF7; experiment: as above; type: cell-based; settings: Homo sapiens, medium instead of PHI-101, 72 hours
Protocol: as §10, §11, §12

[25] = test system: MDA-MB-468; experiment: as above; type: cell-based; settings: Homo sapiens; MDA-MB-468 (triple-negative); medium instead of PHI-101; 72 hours
Protocol: as §10, §11, §12

[26] = test system: SK-BR-3; experiment: as above; type: cell-based; settings: Homo sapiens, medium instead of PHI-101, 72 hours
Protocol: as §10, §11, §12

[27] = test system: T47D; experiment: as above; type: cell-based; settings: Homo sapiens, medium instead of PHI-101, 72 hours
Protocol: as §10, §11, §12

[28] = test system: ZR-75-1; experiment: as above; type: cell-based; settings: Homo sapiens, medium instead of PHI-101, 72 hours
Protocol: as §10, §11, §12

IC50 [1]: 14.7 µM
IC50 [2]: 1.63 µM
IC50 [3]: 4.03 µM
IC50 [4]: 1.8 µM
IC50 [5]: 0.27 µM
IC50 [6]: 3.71 µM
IC50 [7]: 4.97 µM
IC50 [8]: 1.51 µM
IC50 [9]: 3.74 µM
IC50 [10]: 4.11 µM
IC50 [11]: 17.8 µM
IC50 [12]: 11.4 µM
IC50 [13]: 14.3 µM
IC50 [14]: 1.71 µM
IC50 [15]: 3.23 µM
IC50 [16]: 19.2 µM
SMILES: NC(=O)Nc1cc(C#Cc2cccc(F)c2)sc1C(=O)N[C@H]1CCCNC1 [PHI-101, (S)-5-((3-fluorophenyl)ethynyl)-N-(piperidin-3-yl)-3-ureido thiophene-2-carboxamide]
IC50 [17]: 11.8 µM
T/C [18]: 84%
TGI [18]: 16%
Tumor volume (52 days) [18]: 443 ± 18 mm^3
Change in the body weight of each mouse [19]: no significant change
Growth inhibition rate of the Herceptin-resistant tumor, compared with Herceptin group [20]: higher

IC50 [21]: 74.6 µM
IC50 [24]: 98 µM
IC50 [25]: 47.1 µM
IC50 [26]: 127 µM
IC50 [27]: 77 µM
SMILES: O=C(c1cc(Cc2n[nH]c(=O)c3ccccc23)ccc1F)N1CCN(C(=O)C2CC2)CC1 [olaparib]
IC50 [22]: 186 µM
IC50 [23]: 520 µM
IC50 [28]: 352 µM
T/C [18]: 76%
TGI [18]: 24%
Tumor volume (52 days) [18]: 402 ± 25 mm^3
Change in the body weight of each mouse [19]: no significant change

Reference: US11938123B2, “Use of 2,3,5-substituted thiophene compound to prevent, ameliorate, or treat breast cancers” (Pharos iBio Co., Ltd., priority 2018, dated 2024)
